Measured values as given in DBAASP.
In brackets after ≈: the same amount, converted by molar mass. Several values for one entry are separate records, joined by “and”; a condition that tells them apart may be missing. Equal entries are not always repeated.

Legend:
Assay in all cases: ≥ marks a high value that may be exact or a test limit, other limits are often not marked, values filed in µg/mL are converted to µM
Citrobacter koseri = tested on: Citrobacter koseri
Escherichia coli BL21 = tested on: Escherichia coli BL21
Escherichia coli JM109 = tested on: Escherichia coli JM109
[1] = tested on: Klebsiella pneumoniae CCRC 10694
Pseudomonas aeruginosa = tested on: Pseudomonas aeruginosa
Salmonella enterica = tested on: Salmonella enterica
[2] = tested on: Salmonella typhimurium CCRC 12947
[3] = tested on: Staphylococcus aureus CCRC 12652
[4] = tested on: Staphylococcus aureus CCRC 15211
Staphylococcus xylosus = tested on: Staphylococcus xylosus
[5] = tested on: Streptococcus alactolyticus
[6] = tested on: Vibrio parahaemolyticus CCRC 10806
[7] = tested on: Escherichia coli ATCC 11303
[8] = tested on: Bacillus subtilis MTCC 14416
[9] = tested on: Enterococcus faecalis ATCC 29212
Escherichia coli MG1655 = tested on: Escherichia coli MG1655
[10] = tested on: Staphylococcus aureus ATCC 43300
[11] = tested on: Staphylococcus aureus MTCC 9542
Vibrio cholerae = tested on: Vibrio cholerae
[12] = tested on: Bacillus subtilis KCTC 1918
[13] = tested on: Escherichia coli KCTC 1682
[14] = tested on: Listeria monocytogenes KCTC 3710
[15] = tested on: Pseudomonas aeruginosa KCTC 1637
[16] = tested on: Salmonella typhimurium KCTC 1926
[17] = tested on: Staphylococcus aureus KCTC 1621
[18] = tested on: Trichosporon beigelii KCTC 7707
[19] = tested on: Escherichia coli ATCC 25922
[20] = tested on: Escherichia coli ATCC 54127
[21] = tested on: Escherichia coli NCTC 10418
[22] = tested on: Pseudomonas aeruginosa ATCC 27853
[23] = tested on: Pseudomonas aeruginosa CIP A22
[24] = tested on: Staphylococcus aureus ATCC 25923
[25] = tested on: Staphylococcus aureus NCTC 10788
[26] = tested on: Klebsiella pneumoniae ST258
[27] = tested on: Mycobacterium tuberculosis H37Rv
[28] = tested on: Mycobacterium tuberculosis
[29] = tested on: Clavibacter michiganensis subsp. michiganensis KACC 20122

In the case of CC[C@H](C)[C@H](N)C(=O)N[C@@H](CCCCN)C(=O)N[C@@H](Cc1c[nH]c2ccccc12)C(=O)N[C@@H](CCCCN)C(=O)N[C@@H](C)C(=O)N[C@H](C(=O)N[C@@H](CC(C)C)C(=O)N[C@@H](CC(=O)O)C(=O)N[C@@H](C)C(=O)N[C@H](C(=O)N[C@@H](CCCCN)C(=O)N[C@@H](CCCCN)C(=O)N[C@H](C(=O)N[C@H](C(N)=O)[C@@H](C)CC)C(C)C)C(C)C)[C@@H](C)CC [IKWKAILDAVKKVI], the MIC (Citrobacter koseri) is reported as 2.46 µM (≈ 4 µg/mL), the MIC (Escherichia coli BL21) is reported as 4.92 µM (≈ 8 µg/mL) and the MIC (Escherichia coli JM109) is reported as 4.92 µM (≈ 8 µg/mL). The MIC [1] was 19.7 µM (≈ 32 µg/mL), the MIC (Pseudomonas aeruginosa) was 118 µM (≈ 192 µg/mL) and the MIC (Salmonella enterica) was 19.7 µM (≈ 32 µg/mL). It also gave an MIC [2] of 19.7 µM (≈ 32 µg/mL), an MIC [3] of 19.7 µM (≈ 32 µg/mL) and an MIC [4] of at least 39.4 µM. It also gave an MIC (Staphylococcus xylosus) of 1.23 µM (≈ 2 µg/mL), an MIC [5] of 7.38 µM (≈ 12 µg/mL) and an MIC [6] of 9.85 µM (≈ 16 µg/mL).
With CC(C)C[C@H](NC(=O)CNC(=O)CN)C(=O)N[C@@H](CCCCN)C(=O)N[C@@H](CCCCN)C(=O)N[C@@H](CC(C)C)C(=O)NCC(=O)N[C@@H](CCCCN)C(=O)N[C@@H](CCCCN)C(=O)N[C@@H](CC(C)C)C(=O)N[C@@H](CCC(=O)O)C(=O)NCC(=O)N[C@@H](C)C(=O)NCC(=O)N[C@@H](CCCCN)C(=O)N[C@@H](CCCN=C(N)N)C(=O)N[C@H](C(=O)N[C@@H](Cc1ccccc1)C(=O)N[C@@H](CC(N)=O)C(=O)N[C@@H](C)C(=O)N[C@@H](C)C(=O)N[C@@H](CCC(=O)O)C(=O)N[C@@H](CCCCN)C(=O)N[C@@H](C)C(=O)N[C@@H](CC(C)C)C(=O)N1CCC[C@H]1C(=O)O)C(C)C [GGLKKLGKKLEGAGKRVFNAAEKALP] the MIC [7] was 11 µM (≈ 29.6 µg/mL).
For CC[C@H](C)[C@H](NC(=O)[C@H](CCCCN)NC(=O)[C@@H]1CCCN1C(=O)[C@H](CC(C)C)NC(=O)[C@H](Cc1ccccc1)NC(=O)[C@H](CC(N)=O)NC(=O)[C@H](C)NC(=O)[C@H](C)NC(=O)[C@H](CC(C)C)NC(=O)CNC(=O)[C@H](C)NC(=O)[C@H](CC(C)C)NC(=O)[C@H](CC(C)C)NC(=O)[C@@H]1CCCN1C(=O)[C@@H](N)CC(C)C)C(=O)N[C@@H](Cc1ccccc1)C(=O)N[C@@H](CS)C(=O)N[C@@H](CCCCN)C(=O)N[C@H](C(=O)N[C@H](C(=O)N[C@@H](CCCN=C(N)N)C(=O)N[C@@H](CCCCN)C(N)=O)[C@@H](C)O)[C@@H](C)CC [LPLLAGLAANFLPKIFCKITRK], the MIC [8] was 5.15 µM (≈ 12.5 µg/mL), the MIC [9] was 41.2 µM (≈ 100 µg/mL) and the MIC (Escherichia coli MG1655) was 2.57 µM (≈ 6.25 µg/mL). It also gave an MIC [10] of 20.6 µM (≈ 50 µg/mL), an MIC [11] of 2.57 µM (≈ 6.25 µg/mL) and an MIC (Vibrio cholerae) of 5.15 µM (≈ 12.5 µg/mL).
In the case of CC[C@H](C)[C@H](NC(=O)[C@H](CCCCN)NC(=O)[C@H](CCCCN)NC(=O)[C@H](Cc1ccccc1)NC(=O)[C@H](CC(C)C)NC(=O)[C@H](CCCCN)NC(=O)[C@H](CCCCN)NC(=O)[C@H](CC(C)C)NC(=O)[C@H](CCCCN)NC(=O)[C@H](CCCCN)NC(=O)[C@@H](N)Cc1ccccc1)C(=O)N[C@@H](CC(C)C)C(=O)N[C@@H](CCCCN)C(=O)N[C@@H](CC(C)C)C(=O)N[C@@H](CCCCN)C(N)=O [FKKLKKLFKKILKLK], the MIC [12] is reported as 8 µM and 16 µM, the MIC [13] is reported as 8 µM (≈ 15.2 µg/mL) and the MIC [14] is reported as 4 µM and 8 µM. The MIC [15] was 2 µM (≈ 3.81 µg/mL), the MIC [16] was 1 µM and 2 µM and the MIC [17] was 8 µM and 16 µM. For the same compound, the MIC [18] was 1 µM and 2 µM.
Work on CC[C@H](C)[C@H](NC(=O)[C@H](CC(=O)O)NC(=O)[C@H](CCCCN)NC(=O)[C@H](Cc1c[nH]c2ccccc12)NC(=O)[C@H](CC(C)C)NC(=O)[C@H](C)N)C(=O)N[C@@H](CC(C)C)C(=O)N[C@@H](CCCCN)C(=O)N[C@@H](CC(N)=O)C(=O)N[C@H](C(=O)NCC(=O)N[C@@H](CCCCN)C(=O)N[C@@H](C)C(=O)N[C@@H](C)C(=O)NCC(=O)N[C@@H](CCCCN)C(=O)N[C@@H](C)C(=O)N[C@H](C(=O)N[C@@H](CC(C)C)C(=O)N[C@@H](CC(N)=O)C(=O)N[C@H](C(=O)N[C@H](C(=O)N[C@H](C(=O)N[C@@H](CC(=O)O)C(=O)N[C@@H](CCSC)C(=O)N[C@H](C(=O)N[C@@H](CC(N)=O)C(=O)N[C@@H](CCC(N)=O)C(N)=O)C(C)C)[C@@H](C)O)C(C)C)[C@@H](C)O)C(C)C)C(C)C [ALWKDILKNVGKAAGKAVLNTVTDMVNQ] yielded an MIC [19] of 5 µM (≈ 15 µg/mL), an MIC [20] of 2.3 µM (≈ 6.89 µg/mL) and an MIC [21] of 5 µM (≈ 15 µg/mL). It also gave an MIC [22] of 11.6 µM (≈ 34.8 µg/mL), an MIC [23] of 4.6 µM (≈ 13.8 µg/mL) and an MIC [24] of 3 µM (≈ 8.99 µg/mL). It also gave an MIC [25] of 3 µM (≈ 8.99 µg/mL).
Work on CC[C@H](C)[C@H](NC(=O)[C@H](CC(C)C)NC(=O)[C@H](CCCCN)NC(=O)[C@H](CC(C)C)NC(=O)[C@H](C)NC(=O)CNC(=O)[C@H](CCCCN)NC(=O)[C@H](C)NC(=O)[C@H](CC(C)C)NC(=O)[C@H](C)NC(=O)CNC(=O)[C@H](Cc1c[nH]c2ccccc12)NC(=O)[C@@H](N)Cc1ccccc1)C(=O)NCC(=O)N[C@@H](CO)C(=O)N[C@@H](CC(C)C)C(=O)N[C@@H](Cc1ccccc1)C(=O)N[C@@H](CO)C(=O)N[C@@H](CO)C(=O)N[C@@H](Cc1ccccc1)C(=O)N[C@@H](CO)C(=O)N[C@@H](CCCCN)C(=O)N[C@@H](CCCCN)C(=O)N[C@@H](CC(=O)O)C(=O)O [FWGALAKGALKLIGSLFSSFSKKD] yielded an MIC [19] of 12.5 µM (≈ 32.2 µg/mL), an MIC [26] of 19.4 µM (≈ 50 µg/mL) and an MIC [27] of 18.7 µM (≈ 48.1 µg/mL). For the same compound, the MIC [28] was 18.7 µM (≈ 48.1 µg/mL), the MIC [22] was over 19.4 µM and the MIC [24] was 12.5 µM (≈ 32.2 µg/mL).
With NCCCC[C@H](N)C(=O)N[C@@H](Cc1c[nH]c2ccccc12)C(=O)N[C@@H](Cc1c[nH]c2ccccc12)C(=O)N[C@@H](Cc1c[nH]c2ccccc12)C(=O)N[C@@H](CCCN=C(N)N)C(=O)N[C@@H](Cc1c[nH]c2ccccc12)C(N)=O [KWWWRW] the MIC [29] was 12.5 µM and 25 µM and 18.8 µM.
